pIC50: −log10 of the molar value. Like-named read-outs stand apart in the source and are kept apart here. Square brackets hold non-standard residues; d marks the D form. Peptide text beside a SMILES is read from it. * marks the point of attachment. sY = N[C@@H](Cc1ccc(OS(=O)(=O)O)cc1)C(=O)O; Cbz = O=C(OCc1ccccc1)*
Tests used:
CCK-B receptors = details: Bock et al., J. Med. Chem., 32, 13-16 (1989); cited from earlier work
CCK receptor = details: literature; cited from earlier work
CCK receptor (pancreas) = biological target: T1, CCK receptor (pancreas) (Rattus norvegicus, UniProt P30551); assay: CCK Receptor Binding (Pancreas); set-up: species or system rat (male Sprague-Dawley)
T1 construct: The whole pancreas was dissected free of fat tissue and was homogenized; from tissue; host or cells: rat whole pancreas, homogenate membranes
T1 sequence (P30551 1-444): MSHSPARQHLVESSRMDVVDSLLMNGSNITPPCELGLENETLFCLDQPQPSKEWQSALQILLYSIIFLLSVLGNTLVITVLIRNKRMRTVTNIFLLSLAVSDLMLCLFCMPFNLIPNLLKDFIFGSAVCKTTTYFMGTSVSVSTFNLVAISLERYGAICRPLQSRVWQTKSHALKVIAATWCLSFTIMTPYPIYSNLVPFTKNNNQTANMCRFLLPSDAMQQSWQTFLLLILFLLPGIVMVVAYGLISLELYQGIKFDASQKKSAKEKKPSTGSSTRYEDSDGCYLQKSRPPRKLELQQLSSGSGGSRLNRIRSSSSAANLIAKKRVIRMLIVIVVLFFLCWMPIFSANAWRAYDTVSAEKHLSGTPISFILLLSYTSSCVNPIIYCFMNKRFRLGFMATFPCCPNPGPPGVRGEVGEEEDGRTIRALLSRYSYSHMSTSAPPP
Protocol: 1. CCK Receptor Binding (Pancreas)
CCK-8 sulphated was radiolabelled with ^125 I-Bolton Hunter reagent (2000 Ci/mmole). Receptor binding was performed according to Chang and Lotti (Proc. Natl. Acad. Sci. 83, 4923-4926, 1986) with minor modifications.
Male Sprague-Dawley rats (150-200 g) were sacrificed by decapitation. The whole pancreas was dissected free of fat tissue and was homogenized in 25 volumes of ice-cold 10 mM Hepes buffer with 0.1% soya bean trypsin inhibitor (pH 7.4 at 25° C.) with a Kinematica Polytron. The homogenates were centrifuged at 47,800 g for 10 min. Pellets were resuspended in 10 volumes of binding assay buffer (20 mM Hepes, 1 mM EGTA, 5 mM MgCl2, 150 mM NaCl, bacitracin 0.25 mg/ml, soya bean trypsin inhibitor 0.1 mg/ml, and bovine serum albumin 2 mg/ml, pH 6.5 at 25° C.) using a teflon homogenizer, 15 strokes at 500 rpm. The homogenate was further diluted in binding assay buffer to give a final concentration of 0.5 mg original wet weight/1 ml buffer. […] All assays were run in duplicate. The reaction mixtures were incubated at 25° C. for 2 hours and the reaction terminated by rapid filtration (Brandell 24 well cell harvester) over Whatman GF/C filters, washing 3×4 mls with ice-cold 100 mM NaCl. The radioactivity on the filters was counted with a LKB gamma counter.
(§1) Drug displacement studies were performed with at least 10 concentrations of compounds of formula 1 and the IC50 values were determined by regression analysis.

[1] = biological target: T2, CCK receptor (brain, cortex) (Cavia porcellus, UniProt H0VZC5); assay: CCK Receptor Binding (Brain); set-up: species or system guinea pig (male Hartley)
T2 construct: the cortex was removed and homogenized in 25 mL ice-cold 0.32M sucrose; from tissue; host or cells: guinea pig brain cortex, P2 membranes
T2 sequence (H0VZC5 1-426): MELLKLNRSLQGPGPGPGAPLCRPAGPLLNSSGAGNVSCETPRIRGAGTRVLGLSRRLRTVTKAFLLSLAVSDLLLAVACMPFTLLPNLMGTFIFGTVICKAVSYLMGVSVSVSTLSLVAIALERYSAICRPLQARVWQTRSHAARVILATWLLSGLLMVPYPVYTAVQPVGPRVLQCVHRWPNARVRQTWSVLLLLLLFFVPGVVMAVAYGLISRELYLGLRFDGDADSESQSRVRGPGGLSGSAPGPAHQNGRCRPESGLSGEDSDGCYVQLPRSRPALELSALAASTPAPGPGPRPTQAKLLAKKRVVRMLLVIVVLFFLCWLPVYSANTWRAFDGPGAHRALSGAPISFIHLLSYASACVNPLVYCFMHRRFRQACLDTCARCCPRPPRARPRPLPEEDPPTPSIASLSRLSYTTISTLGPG
Protocol: 2. CCK Receptor Binding (Brain)
CCK-8 sulphated was radiolabelled and the binding was performed according to the description for the pancreas method with minor modifications.
Male Hartley guinea pigs (300-500 g) were sacrificed by decapitation and the cortex was removed and homogenized in 25 mL ice-cold 0.32M sucrose. The homogenates were centrifuged at 1000 g for 10 minutes and the resulting supernatant was recentrifuged at 20,000 g for 20 minutes. […] All assays were run in duplicate. The reaction mixtures were incubated at 25° C. for 2 hours and then the reaction was terminated on Whatman GF/C filters by rapid filtration (Brandell 24 well cell Harvester) with 3×5 ml washes of cold 100 mM NaCl. The radioactivity on the filters was then counted with a LKB gamma counter.
as §1

gastrin = details: J. Martinez, J. Med. Chem. 27, 1597 (1984); cited from earlier work
[2] = 125I-CCK-8 50 pM, guinea pig cortex, 25° C., 2 hours, read-out: CCK RECEPTOR BINDING RESULTS IC50, 125I-CCK Brain
[3] = 125I-CCK-8 50 pM, rat pancreas, 25° C., 2 hours, read-out: CCK RECEPTOR BINDING RESULTS IC50, 125I-CCK Pancreas

Row | Structure (SMILES) | pIC50 (CCK receptor (pancreas)) | pIC50 [1, 2] | further results
1 | Cc1cccc(NC(=O)N[C@@H]2N=C(c3ccccc3)c3ccccc3N(C)C2=O)c1 [(R)-N-(2,3-dihydro-1-methyl-2-oxo-5-phenyl-1H-1,4-benzodiazepin-3-yl)-N^1-(3-methylphenyl) urea] |  |  | antagonist of CCK-B receptors (CCK-B receptors): potent and selective antagonist of CCK-B receptors
2 | CSCC[C@H](NC(=O)[C@H](Cc1ccc(OS(=O)(=O)O)cc1)NC(=O)OCc1ccccc1)C(=O)NCC(=O)N[C@@H](Cc1c[nH]c2ccccc12)C(=O)N[C@@H](CCSC)C(=O)N[C@@H](CC(=O)O)C(N)=O [Cbz--Tyr(SO3 H)--Met--Gly--Trp--Met--Asp--NH2] (Cbz-[sY]MGWMD-NH2) |  |  | CCK-receptor antagonist potency / agonism (CCK receptor): partial agonist
3 | O=C(Nc1ccc(Cl)cc1)NC1N=C(c2ccccc2)c2ccccc2N(Cc2nnn[nH]2)C1=O (centres unmarked) [Example 1, N-{1,3-Dihydro-1-[1H-tetrazol-5yl]methyl-2-oxo-5-phenyl-1H-1,4-benzodiazepin-3-yl}-N'-{[4-chlorophenyl]-urea}] | 5.67 | 6.31 | 
4 | O=C(Nc1ccc(Cl)cc1)NC1N=C(c2ccccc2)c2ccccc2N(CC(O)CN2CCCC2)C1=O (centres unmarked) [Example 2, N-{1,3-Dihydro-1-[3-((pyrrolidinyl)-2-hydroxy)propyl]-2-oxo-5-phenyl-1H-1,4-benzodiazepin-3-yl}-N'-{[4-chlorophenyl]-urea}] | < 5.52 | 6.52 | 
5 | CN(C)CC(O)CN1C(=O)C(NC(=O)Nc2ccc(Cl)cc2)N=C(c2ccccc2)c2ccccc21 (centres unmarked) [Example 3, N-{1,3-Dihydro-1-[3-((dimethylamino)-2-hydroxy)propyl]-2-oxo-5-phenyl-1H-1,4-benzodiazepin-3-yl}-N'-{[4-chlorophenyl]-urea}] | < 5.52 | 6.37 | 
6 | O=C(Nc1ccc(Cl)cc1)NC1N=C(c2ccccc2)c2ccccc2N(CC(Cl)CO)C1=O (centres unmarked) [Example 4, N-{1,3-Dihydro-1-[3-((hydroxy)-2-chloro)propyl]-2-oxo-5-phenyl-1H-1,4-benzodiazepin-3-yl}-N'-{[4-chlorophenyl]-urea}] |  | 7.21 | pIC50 (CCK receptor (pancreas); [3]): < 5.52
7 | O=C(Nc1ccc(Cl)cc1)NC1N=C(c2ccccc2)c2ccccc2N(CC(O)CO)C1=O (centres unmarked) [Example 5, N-{1,3-Dihydro-1-[2,3-(dihydroxy)propyl]-2-oxo-5-phenyl-1H-1,4-benzodiazepin-3-yl}-N'-{[4-chlorophenyl]-urea}] |  |  | pIC50 (CCK receptor (pancreas); [3]): < 5.52; pIC50 [1]: 6.93
8 | CCCC(=O)Nc1nc2c(ncn2[C@@H]2O[C@@H]3COP(=O)(O)O[C@H]3[C@H]2OC(=O)CCC)c(=O)[nH]1 [dibutyryl cyclic GMP] |  |  | CCK-receptor antagonist potency / agonism (CCK receptor): the most potent
9 | CCCN(CCC)C(=O)C(CCC(=O)O)NC(=O)c1ccccc1 (centres unmarked) [proglumide] |  |  | in vitro gastrin antagonism (gastrin): very weak in vitro antagonists

Source: patent US5218114A, “Cholecystokinin antagonists” (Merck & Co., Inc., priority 1992, dated 1993)
